Assay results taken from US10980777B2, “Indole derivatives as histone demethylase inhibitors” (Istituto Europeo di Oncologia S.r.l., priority 2017, dated 2021).
Where a name gives a salt, the structure may show the parent alone.

Tests used:
[1] = target: T1, human recombinant KDM1A/CoREST protein (Homo sapiens, UniProt O60341); test: Assay of enzyme inhibition of KDM1A (LSD1), TR-FRET; assay type: biochemical; conditions: 0.25 nM KDM1A/CoREST, 50 nM H3K4 monomethylated peptide, 20 min at RT; read-out: IC50, KDM1A (LSD1) enzyme inhibition
T1 construct: made in house; host or cells: E. coli
Method: 2.1 Assay of Enzyme Inhibition of KDM1A (LSD1)
The KDM1A inhibiting activity was determined using a TR-FRET assay (time resolved fluorescence resonance energy transfer, Lance® Ultra Demethylase technology (Perkin Elmer, Waltham, Mass., USA)), which comprises a Europium chelate donor dye (TRF0404, Perkin Elmer, Waltham, Mass., USA) together with ULight™ (TR0102, Perkin Elmer, Waltham, Mass., USA), a small molecular weight acceptor dye with a red-shifted fluorescent emission, and a biotinylated 21 amino acids histone H3-derived monomethylated peptide (H3K4me) [Lys(Me1)4]-Histone H3 (1-21)-GGK(biotin), (64355, Anaspec, Fremont, Calif., USA) as substrate. The intensity of the light emission is proportional to the level of biotinylated reaction product. The complex of human recombinant KDM1A/CoREST protein was produced in E. coli as separate proteins and co-purified as previously described.(Forneris, F. et al. Trends Biochem, Sci, 2008, 33, 181-189) (Forneris, F. et al. J. Biol. Chem. 2007, 282, 20070-20074).
Demethylase Assay conditions: 0.25 nM KDM1A/CoREST protein and compound in 100% DMSO were added in a final volume of 48 μL assay buffer (Tris HCl 50 mM pH 8.8, NaCl 50 mM, DTT 1 mM, Tween-20 0.01% (by volume)) to each well of a 96 well half area flat bottom white plate (3693 Costar, Sigma-Aldrich, St. Louis, M, USA).
Demethylase reaction was started by the addition of 50 nM histone H3K4 monomethylated. After 20 min at RT, 300 μM tranylcypromine (P8511-1G, Sigma-Aldrich, St. Louis, Mo. 63103) was added to stop the reaction.
Detection step conditions: 10 μL of the assay mixture was transferred from the original plate into a 384 well white plate (6007290 OptiPlate™, Perkin Elmer, Waltham, Mass., USA) and 10 μL of the detection Mix containing 2 nM Eu-antibody and 10 nM U-Light-Streptavidin in 1× Lance Detection Buffer (TRF0404, TR0102, CR97100, Perkin Elmer, Waltham, Mass., USA). The resulting mixture was incubated in the dark for 1 h at RT. Then, TR-FRET signal was read by a fluorimeter (Infinite® F200, Tecan, Männedorf, Switzerland) (Excitation 320 nm, Emission 665 nm and 620 nm, delay time 50 μs, window time 100 μs).
IC50 determination: The inhibitor concentrations ranged from 0.025 to 500 μM (serial 1:3 dilutions). The IC50 was calculated using GraphPad Software.

[2] = tested on: Human leukemia MV4-11 cells; test: Cell growth, CellTiter-Fluor cell viability assay, MV4-11; assay type: cell-based; conditions: 48 h incubation, read-out: IC50 against human leukemia MV4-11 cells
Source text: (§1) CellTiter-Flor® (Promega) is as a nonlytic, single-reagent-addition fluorescence assay that measures the relative number of living cells in a culture population after experimental manipulation. The CellTiter-Fluor™ Cell Viability Assay measures the conserved and constitutive protease activity within live cells and therefore acts as a marker for cell viability.
(§2) Human leukemia MV4-11 cells, (obtained from the Deutsche Sammlung von Mikroorganismen und Zellkulturen, ACC 102) or NB4 cells, (obtained from the Deutsche Sammlung von Mikroorganismen und Zellkulturen) in exponential growth, were incubated for 48 h with different concentrations of the inhibitors. After 48 h a volume of CellTiter-Fluor® Reagent equal to one fifth of volume of cell culture medium was added. The content was mixed and incubates for at least 90 min at 37° C. degree to obtain a stable signal. The fluorescence was recorded using an excitation wavelength of 360 nm and an emission at 535 nm. The IC50 was calculated using GraphPad Software.

[3] = tested on: human leukemia NB4 cells; test: Cell growth, CellTiter-Fluor cell viability assay, NB4; assay type: cell-based; conditions: NB-4, 48 h incubation, read-out: IC50 against human leukemia NB4 cells
Source text: as §1, §2

Molecule `Cn1c(C(=O)c2cn(CCOc3ccc(OCC4CCNCC4)cc3)c3ccccc23)cc2sccc21` [Compound 19, (4-methylthieno[3,2-b]pyrrol-5-yl)-[1-[2-[4-(4-piperidylmethoxy)phenoxy]ethyl]indol-3-yl]methanone hydrochloride] has an IC50 [1] of under 0.5 µM, an IC50 [2] of under 10 µM and an IC50 [3] of under 10 µM.
